Values after ≈ are worked out from the molar mass of the structure shown. Blank lines part the entries; values can stand above or below the compound they belong to.
Tests used:
[1] = target: T1, Renin (Homo sapiens) (UniProt P00797); assay: (§1) Inhibition of human recombinant renin expressed in FreeStyle 293 expression system at 100 uM using FITC-epsilonAcp-Asp-Arg-Val-Tyr-Ile-His-Pro-Phe-His-Leu-Val-Ile-His-Asn-Arg-NH2 as substrate preincubated for 15 mins followed by substrate addition measured after 30 mins by microchip type capillary electrophoresis method relative to control
T1 sequence (whole entry): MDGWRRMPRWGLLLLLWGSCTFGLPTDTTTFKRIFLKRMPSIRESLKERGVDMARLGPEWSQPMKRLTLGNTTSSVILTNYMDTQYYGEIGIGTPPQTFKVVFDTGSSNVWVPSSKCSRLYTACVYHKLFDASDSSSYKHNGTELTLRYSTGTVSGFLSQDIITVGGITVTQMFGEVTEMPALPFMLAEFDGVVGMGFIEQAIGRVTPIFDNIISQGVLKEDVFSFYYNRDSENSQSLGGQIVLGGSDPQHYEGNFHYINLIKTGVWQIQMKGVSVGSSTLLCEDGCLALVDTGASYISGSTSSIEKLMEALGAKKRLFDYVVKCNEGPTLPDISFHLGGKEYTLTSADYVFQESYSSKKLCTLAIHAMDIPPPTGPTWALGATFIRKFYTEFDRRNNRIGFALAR

[2] = target: T2, Renin (Homo sapiens, UniProt P00797); assay: as §1, with “system” for “system at 100 uM”, “method” for “method relative to control”
T2 sequence (P00797 whole entry): T1 sequence (whole entry)

[3] = Intrinsic clearance in human liver microsomes assessed per mg of protein at 1 umol/l after 15 to 30 mins in presence of NADPH-generating system by LC/MS/MS analysis; format: ADME; settings: read-out: CLH
[4] = target: hERG (KCNH2) (Homo sapiens, UniProt Q12809); assay: Inhibition of human ERG expressed in CHO cells assessed as suppression of peak tail currents incubated for 5 mins by patch clamp method; format: cell-based; settings: CHO cells that express human ERG
hERG (KCNH2), sequence (Q12809 whole entry): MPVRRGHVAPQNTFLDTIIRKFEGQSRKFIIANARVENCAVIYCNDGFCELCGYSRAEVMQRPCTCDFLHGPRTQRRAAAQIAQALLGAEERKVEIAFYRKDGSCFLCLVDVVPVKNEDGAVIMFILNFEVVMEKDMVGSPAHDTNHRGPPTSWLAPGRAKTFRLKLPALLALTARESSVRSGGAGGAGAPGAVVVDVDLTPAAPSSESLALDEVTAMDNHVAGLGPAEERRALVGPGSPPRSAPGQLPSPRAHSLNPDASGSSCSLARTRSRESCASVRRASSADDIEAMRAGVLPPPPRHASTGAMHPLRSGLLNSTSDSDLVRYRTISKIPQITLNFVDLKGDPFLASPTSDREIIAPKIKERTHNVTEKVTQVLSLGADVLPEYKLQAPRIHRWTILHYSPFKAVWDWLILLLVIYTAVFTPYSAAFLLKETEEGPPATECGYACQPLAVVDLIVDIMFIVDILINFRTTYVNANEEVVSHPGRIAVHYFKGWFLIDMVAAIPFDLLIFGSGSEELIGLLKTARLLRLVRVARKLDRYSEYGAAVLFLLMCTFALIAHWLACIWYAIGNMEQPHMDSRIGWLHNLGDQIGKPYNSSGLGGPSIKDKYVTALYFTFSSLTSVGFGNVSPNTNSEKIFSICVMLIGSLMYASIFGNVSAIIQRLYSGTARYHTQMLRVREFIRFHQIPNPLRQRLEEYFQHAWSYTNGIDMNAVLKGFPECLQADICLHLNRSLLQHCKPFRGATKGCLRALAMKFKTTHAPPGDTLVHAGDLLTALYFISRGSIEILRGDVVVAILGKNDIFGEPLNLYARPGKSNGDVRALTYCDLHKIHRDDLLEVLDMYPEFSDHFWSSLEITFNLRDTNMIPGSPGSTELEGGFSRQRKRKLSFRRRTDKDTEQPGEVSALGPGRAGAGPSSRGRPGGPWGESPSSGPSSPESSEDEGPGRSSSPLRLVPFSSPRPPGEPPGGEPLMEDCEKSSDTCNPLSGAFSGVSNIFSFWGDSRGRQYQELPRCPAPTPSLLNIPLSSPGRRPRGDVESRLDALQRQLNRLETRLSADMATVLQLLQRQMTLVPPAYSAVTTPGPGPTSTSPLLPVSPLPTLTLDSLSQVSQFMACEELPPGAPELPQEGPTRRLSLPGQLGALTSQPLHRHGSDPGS

[5] = Aqueous solubility of the compound in pH 6.8 Japanese pharmacopoeia second fluid by HPLC analysis; format: ADME
[6] = target: CYP3A4 (Homo sapiens, UniProt P08684); assay: Inhibition of CYP3A4 in human liver microsomes using testosterone as substrate assessed as 6beta-hydroxytestosterone formation at 10 uM after 60 mins by LC/MS/MS analysis relative to control; format: ADME; settings: probe testosterone
CYP3A4, sequence (P08684 whole entry): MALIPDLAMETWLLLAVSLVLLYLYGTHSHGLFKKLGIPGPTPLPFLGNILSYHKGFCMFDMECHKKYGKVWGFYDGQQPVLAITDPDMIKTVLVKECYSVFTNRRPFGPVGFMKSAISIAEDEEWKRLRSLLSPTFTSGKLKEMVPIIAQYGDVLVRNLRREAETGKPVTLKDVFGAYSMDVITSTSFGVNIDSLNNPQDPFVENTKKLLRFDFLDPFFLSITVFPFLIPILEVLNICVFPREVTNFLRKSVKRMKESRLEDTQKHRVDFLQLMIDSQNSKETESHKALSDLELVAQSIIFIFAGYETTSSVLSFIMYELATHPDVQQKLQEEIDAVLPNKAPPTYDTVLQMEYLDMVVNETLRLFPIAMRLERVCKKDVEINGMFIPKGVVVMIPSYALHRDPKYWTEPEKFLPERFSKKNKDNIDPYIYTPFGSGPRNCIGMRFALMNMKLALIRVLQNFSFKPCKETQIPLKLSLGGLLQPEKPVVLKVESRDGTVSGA

[7] = Cytotoxicity against human HepG2 cells assessed as ATP contents at 30 uM after 1 day by ATPLiteTM-M assay relative to control; format: toxicity, cell-based; settings: read-out: Activity

Compound: NCc1ccco1
IC50 [2]: > 300 µM

Compound: Nc1ncnc2sc3c(c12)CCCC3
IC50 [2]: > 300 µM

Compound: c1coc(CNc2ncnc3sc4c(c23)CCCC4)c1
microsomal CLint at 1 µM [3]: 187 µL/min/mg
inhibition at 5 min [4]: 62.8%
solubility [5]: 5.2 µg/mL (≈ 18.2 µM)
inhibition at 1 h, 10 µM [6]: 70.2%
viability at 24 h, 30 µM [7]: 31.4%

Second part, led by results:

inhibition [1]: 31%
Compound: CCN(CC)C(=O)c1ccc(C)nc1NCc1ccco1

inhibition [1]: < 30%
Compound: Cc1ccc(C(=O)NC(C)(C)c2ccccc2)c(NCc2ccco2)n1

inhibition [1]: 65%
Compound: Clc1cncc(NCc2ccco2)n1

inhibition [1]: 70%
microsomal CLint at 1 µM [3]: 85 µL/min/mg
solubility [5]: 50 µg/mL (≈ 160 µM)
inhibition at 1 h, 10 µM [6]: 35.6%
Compound: Cc1ccc(C(=O)N2CCCCCC2)c(NCc2ccco2)n1
inhibition at 5 min [4]: 7.5%
viability at 24 h, 30 µM [7]: 91.6%

IC50 [2]: 11 µM
inhibition [1]: 86%
Compound: CCC1CCCCN1C(=O)c1ccc(C)nc1NCc1ccco1 (stereo not drawn)

Source: ChEMBL document CHEMBL3856281, “Novel approach of fragment-based lead discovery applied to renin inhibitors” (Bioorg Med Chem, 2016)
